Laboratory results taken from PMC12202571, “Reversal of ABCG2-mediated drug resistance by tinodasertib (ETC-206)” (Frontiers in Pharmacology, 2025).
pIC50: −log10 of the molar value.

How the values were obtained:
ABCG2 [1] = biological target: T1, ABCG2 (Homo sapiens, UniProt Q9UNQ0)
T1 sequence (Q9UNQ0 1-655): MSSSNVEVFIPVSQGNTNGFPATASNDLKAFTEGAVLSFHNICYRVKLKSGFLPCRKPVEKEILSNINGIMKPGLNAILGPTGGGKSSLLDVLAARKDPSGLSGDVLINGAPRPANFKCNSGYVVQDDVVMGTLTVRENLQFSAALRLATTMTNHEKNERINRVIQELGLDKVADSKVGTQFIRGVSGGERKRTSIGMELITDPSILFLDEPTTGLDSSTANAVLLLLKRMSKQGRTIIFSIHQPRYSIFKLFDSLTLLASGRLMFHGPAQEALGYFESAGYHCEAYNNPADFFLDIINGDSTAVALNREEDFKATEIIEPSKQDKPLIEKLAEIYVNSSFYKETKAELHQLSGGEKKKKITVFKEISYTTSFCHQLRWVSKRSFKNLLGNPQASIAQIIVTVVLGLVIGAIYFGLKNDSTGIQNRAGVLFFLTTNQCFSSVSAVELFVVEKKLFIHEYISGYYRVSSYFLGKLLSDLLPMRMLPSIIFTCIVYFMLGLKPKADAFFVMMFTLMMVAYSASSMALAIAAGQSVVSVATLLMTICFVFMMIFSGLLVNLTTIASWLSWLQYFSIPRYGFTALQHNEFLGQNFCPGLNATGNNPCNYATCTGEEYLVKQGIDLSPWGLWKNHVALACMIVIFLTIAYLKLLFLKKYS

ABCG2 [2] = biological target: T2, ABCG2 (Homo sapiens, UniProt Q9UNQ0); assay: vanadate-sensitive ATPase assay in ABCG2 membrane vesicles (colorimetric phosphate); supported by [3H]-mitoxantrone efflux inhibition in cells; type: biochemical
T2 construct: ABCG2-containing membrane vesicles

Row | SMILES | [3H]-mitoxantrone accumulation and efflux in ABCG2-overexpressing versus parenta (ABCG2 [1]) | pIC50 (ABCG2 [2])
1 | O=C1c2c(O)ccc(O)c2C(=O)c2c(NCCNCCO)ccc(NCCNCCO)c21 [mitoxantrone] | Efflux assays demonstrated a substantial reduction in [^3H]-mitoxantrone efflux from ABCG2-overexpressing cells | 
2 | N#Cc1ccc(-c2cnc3ccc(-c4ccc(C(=O)N5CCOCC5)cc4)cn23)cc1 [tinodasertib] |  | ~5.70
